Assay results: patent US9637490B2, “Antifungal 5,6-dihydro-4-[(difluoroethyl)phenyl]-4H-pyrrolo[1,2-α][1,4]benzodiazepine and 4-(difluoroethyl)phenyl-6H-pyrrolo[1,2-α][1,4]benzodiazepine derivatives” (Janssen Pharmaceutica NV, priority 2010, dated 2017)
Values belong to the compound of their own block, whether it stands above or below them.

Tests used:
[1] = tested on: Sporothrix schenkii B62482; experiment: Antifungal activity in vitro (resazurin susceptibility screen), Inf. A; assay type: cell-based; conditions: Sporothrix, B62482, Sporothrix schenkii B62482; 27 °C, 4 days, resa time 24 hours
Method in brief: (§1)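 RPMI-1640/2% glucose/MOPS pH 7.0; 10^3 cfu per well; top conc 64 μM, 2- or 4-fold dilutions from DMSO. Yeasts 24 h 37° C, dermatophytes ≥1 wk 27° C. Resazurin 0.005% added, fluorescence ex 550/em 590 nm vs untreated growth and medium-only controls.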

[2] = tested on: Scedosporium prolificans IHEM21157; experiment: Antifungal activity in vitro (resazurin susceptibility screen), Inf. I; assay type: cell-based; conditions: Lomentospora prolificans, 37 °C, 48 hours, resa time 17 hours
Experimental: (§2) The standard susceptibility screen was performed in 96-well plates (U-bottom, Greiner Bio-One). Serial dilutions (2-fold or 4-fold) of 20 mM compound stock solutions were made in 100% DMSO, followed by an intermediate dilution step in water. These serial dilutions (10 μl) were then spotted onto test-plates that could be stored in the dark at 4° C. for a maximum period of 2 weeks. An adequate broad dose-range was included with 64 μM as the highest in-test concentration. The culture medium RPMI-1640 was supplemented with L-glutamine, 2% glucose and buffered with 3-(N-morpholino)-propanesulfonic acid (MOPS) at pH 7.0±0.1. The different fungal species/isolates (Table 3a) were cryopreserved and 1/1000 diluted in medium just prior to use. A standard inoculum of 200 μl containing 10^3 colony-forming unit (cfu) was then added to each well. A positive control (100% growth=fungal culture without antifungal) and a negative control (0% growth=RPMI-MOPS medium) were included on each plate. Optimal incubation time and temperature were dependent on the fungal species and vary from 24 h for yeasts (37° C.) to one week or more for dermatophytes (27° C.). Inhibition of fungal growth was measured after adding 10 μl of 0.005% (w/v) resazurin (Sigma Aldrich) to each well, based on the principle that living cells convert the non-fluorescent blue resazurin into the pink and fluorescent resorufin, allowing fluorimetric reading (λhd ex 550 nm and μem 590 nm) after an additional incubation period (‘resa’ time mentioned in Table 3a). [table]

[3] = tested on: Rhizopus oryzae IHEM5223; experiment: Antifungal activity in vitro (resazurin susceptibility screen), Inf. J; assay type: cell-based; conditions: Rhizopus arrhizus, 37 °C, 24 hours, resa time 6 hours
Experimental: as §2

[4] = tested on: Candida parapsilosis B66126; experiment: Antifungal activity in vitro (resazurin susceptibility screen), Inf. D; assay type: cell-based; conditions: Lodderomyces parapsilosis, B66126, Candida parapsilosis B66126; 37 °C, 24 hours, resa time 4 hours
Method in brief: as §1

[5] = tested on: Microsporum canis B68128; experiment: Antifungal activity in vitro (resazurin susceptibility screen), Inf. B; assay type: cell-based; conditions: Microsporum canis, B68128, Microsporum canis B68128; 27 °C, 9 days, resa time 24 hours
Method in brief: as §1

[6] = tested on: Microsporum canis (strain B68128); experiment: Test D.4.1: activity against M. canis in guinea-pigs after oral treatment for 7 consecutive days; assay type: in vivo; design: key to semi-quantitative lesion score (mean): lesion score 0–3.5 by severity and size of lesion
Experimental: (§3) The animals used in the tests described below were female Guinea pigs (Duncan-Hartley, Charles River, 200 g). These animals were kept in groups of 2 or 3 in cages of 56×33×20 cm^3. Food pellets (Carfil Quality) and water were available ad libitum in addition to a small daily amount of hay. Standard husbandry conditions were adopted: room temperature: 22° C., humidity level: 60% and a day-night cycle of 12 h.
(§4) For the preparation of inoculums, Microsporum canis (strain B68128) was grown on Sabouraud Dextrose Agar (SDA) plates for at least one week (7-10 days) before infection (27° C.). On the day of infection, spores were harvested by adding 4-5 ml sterile water on the plate and suspending the infectious material with a bend Pasteur pipette. From the recollected fluid, 10 μl was added to a KOVA counting chamber for determination of the number of spores in 1 square (average of several squares). If needed, additional dilutions (10× or 100×) were prepared. The average number of spores in one square×dilution×90.000=cfu/ml. An inoculum of 1×10^7 cfu/ml was prepared in a honey-water mixture (50%-50%).
(§5) In the tests described below, semi-quantitative lesion scores were given based on different clinical parameters. Scores between 0 and 3.5 were assigned based on the severity and size of the lesion. The criteria are listed in detail in Table 6.
The dorsum of the guinea pigs was shaved and further depilated for 3 minutes with Veet® creme before scarification with a steel brush. An inoculum of 10^6 cfu in 150 μl (75 mQ+75 μl honey) was applied to the wound using a micropipette with disposable tips. The animal was kept immobilized until the inoculum had completely dried. […]
vehicle: methocel 0.5%, Tween 80® (polysorbate 80), demineralised water reference compound: itraconazole at 6.25 mg/ml test compounds: prepared at 25 mg/ml, subsequently further diluted
Oral treatment (gavage 0.16 ml/100 g once daily) was started about 2 hours before infection and continued once daily for 7 consecutive days. The animals were weighed after 3 days of treatment to adjust for the dose.
Developments of lesions were evaluated following the semi-quantitative lesion scoring system (see Table 6) on days 3, 5, 7, 10, 12, 14, 17 and 20. The results are show in Table 7 (“DPI” means days post infection). Reported values in Table 7 are mean values.

[7] = tested on: Aspergillus fumigatus B42928; experiment: Antifungal activity in vitro (resazurin susceptibility screen), Inf. E; assay type: cell-based; conditions: Aspergillus fumigatus, B42928, Aspergillus fumigatus B42928; 27 °C, 48 hours, resa time 17 hours
Method in brief: as §1

[8] = tested on: Cryptococcus neoformans B66663; experiment: Antifungal activity in vitro (resazurin susceptibility screen), Inf. F; assay type: cell-based; conditions: Cryptococcus neoformans, B66663, Cryptococcus neoformans B66663; 37 °C, 24 hours, resa time 4 hours
Method in brief: as §1

[9] = tested on: Rhizomucor miehei IHEM13391; experiment: Antifungal activity in vitro (resazurin susceptibility screen), Inf. K; assay type: cell-based; conditions: Rhizomucor miehei, IHEM13391, Rhizomucor miehei IHEM13391; 37 °C, 48 hours, resa time 17 hours
Experimental: as §2

[10] = tested on: Trichophyton rubrum B68183; experiment: Antifungal activity in vitro (resazurin susceptibility screen), Inf. C; assay type: cell-based; conditions: Trichophyton rubrum, B68183, Trichophyton rubrum B68183; 27 °C, 7 days, resa time 24 hours
Method in brief: as §1

[11] = tested on: Trichophyton mentagrophytes B70554; experiment: Antifungal activity in vitro (resazurin susceptibility screen), Inf. G; assay type: cell-based; conditions: Trichophyton mentagrophytes, B70554, Trichophyton mentagrophytes B70554; 27 °C, 7 days, resa time 24 hours
Method in brief: as §1

[12] = tested on: Mucor circinelloides IHEM21105; experiment: Antifungal activity in vitro (resazurin susceptibility screen), Inf. L; assay type: cell-based; conditions: 27 °C, 48 hours, resa time 17 hours
Experimental: as §2

[13] = tested on: Scedosporium apiospermum IHEM3817; experiment: Antifungal activity in vitro (resazurin susceptibility screen), Inf. H; assay type: cell-based; conditions: Scedosporium apiospermum, IHEM3817, Scedosporium apiospermum IHEM3817; 37 °C, 48 hours, resa time 17 hours
Experimental: as §2

[14] = tested on: Microsporum canis (strain B68128); experiment: Analogous protocol: comparison compounds (G10, G11) against M. canis in guinea pigs after oral treatment; assay type: in vivo; design: key to semi-quantitative lesion score (mean): lesion score 0–3.5 by severity and size of lesion; conditions: oral 50 mg/kg once daily for 7 days
Experimental: as §3, §4, §5
For the sake of comparison, 2 compounds not having the 1,1-difluoroethyl moiety in the R^5 or R^6 position, were tested in an analogous protocol:
The dorsum of the guinea pigs was shaved and further depilated for 7 minutes with Veet® creme before scarification with a steel brush. An inoculum of 10^6 cfu in 200 μl (100 μl mQ+100 μl honey) was applied to the wound using a micropipette with disposable tips. The animal was kept immobilized until the inoculum had completely dried.
Vehicle: methocel F4M Premium EP, Tween 80® (polysorbate 80), demineralised water.
Test compounds: prepared at 30 mg/ml, subsequently further diluted until 6 mg/ml.
Oral treatment (gavage 0.40 ml/guinea pig once daily) was started about 2 hours before infection and continued once daily for 7 consecutive days.
Developments of lesions were evaluated following the semi-quantitative lesion scoring system (see Table 6) on days 3, 5, 7, 10, 12, 14, 18 and 21. Reported values in Table 8 are mean values.

IC50 [1]: 43700 nM | IC50 [2]: 1320 nM | IC50 [3]: > 64600 nM | IC50 [4]: 3020 nM | IC50 [5]: 525 nM | IC50 [7]: 2000 nM | IC50 [8]: 37200 nM | IC50 [9]: 45700 nM | IC50 [10]: 372 nM | IC50 [11]: 603 nM | melting point: 106.9 to 109.7 °C | IC50 [12]: > 64600 nM | IC50 [13]: 1740 nM
Structure (SMILES): CC(F)(F)c1cccc(C2=NCc3c(Cl)cccc3-n3cccc32)c1 [Compound 14, 7-chloro-4-[3-(1,1-difluoroethyl)phenyl]-6H-pyrrolo[1,2-a][1,4]benzodiazepine]
semi-quantitative lesion score (mean) ([6]; oral 10 mg/kg once daily for 7 days, 3 DPI): 0.33 | semi-quantitative lesion score (mean) ([6]; oral 10 mg/kg once daily for 7 days, 5 DPI): 1.17 | semi-quantitative lesion score (mean) ([6]; oral 10 mg/kg once daily for 7 days, 7 DPI): 2.00 | semi-quantitative lesion score (mean) ([6]; oral 10 mg/kg once daily for 7 days, 10 DPI): 2.17 | semi-quantitative lesion score (mean) ([6]; oral 10 mg/kg once daily for 7 days, 12 DPI): 2.33 | semi-quantitative lesion score (mean) ([6]; oral 10 mg/kg once daily for 7 days, 14 DPI): 2.17 | semi-quantitative lesion score (mean) ([6]; oral 10 mg/kg once daily for 7 days, 17 DPI): 1.67 | semi-quantitative lesion score (mean) ([6]; oral 10 mg/kg once daily for 7 days, 20 DPI): 1.17 | semi-quantitative lesion score (mean) ([6]; oral 20 mg/kg once daily for 7 days, 3 DPI): 0 | semi-quantitative lesion score (mean) ([6]; oral 20 mg/kg once daily for 7 days, 5 DPI): 0.33 | semi-quantitative lesion score (mean) ([6]; oral 20 mg/kg once daily for 7 days, 7 DPI): 0.83 | semi-quantitative lesion score (mean) ([6]; oral 20 mg/kg once daily for 7 days, 10 DPI): 1.67 | semi-quantitative lesion score (mean) ([6]; oral 20 mg/kg once daily for 7 days, 12 DPI): 2.00 | semi-quantitative lesion score (mean) ([6]; oral 20 mg/kg once daily for 7 days, 14 DPI): 1.67 | semi-quantitative lesion score (mean) ([6]; oral 20 mg/kg once daily for 7 days, 17 DPI): 1.50 | semi-quantitative lesion score (mean) ([6]; oral 20 mg/kg once daily for 7 days, 20 DPI): 0.67 | activity compared with the terbinafine group (G2, 10 mg/kg) ([6]; oral 40 mg/kg once daily for 7 days): comparable to G2 | semi-quantitative lesion score (mean) ([6]; oral 40 mg/kg once daily for 7 days, 3 DPI): 0 | semi-quantitative lesion score (mean) ([6]; oral 40 mg/kg once daily for 7 days, 5 DPI): 0.17 | semi-quantitative lesion score (mean) ([6]; oral 40 mg/kg once daily for 7 days, 7 DPI): 0.67 | semi-quantitative lesion score (mean) ([6]; oral 40 mg/kg once daily for 7 days, 10 DPI): 1.17 | semi-quantitative lesion score (mean) ([6]; oral 40 mg/kg once daily for 7 days, 12 DPI): 0.83 | semi-quantitative lesion score (mean) ([6]; oral 40 mg/kg once daily for 7 days, 14 DPI): 0.50 | semi-quantitative lesion score (mean) ([6]; oral 40 mg/kg once daily for 7 days, 17 DPI): 0.17 | semi-quantitative lesion score (mean) ([6]; oral 40 mg/kg once daily for 7 days, 20 DPI): 0.17

Structure (SMILES): CCc1cccc(C2=NCc3c(Cl)cccc3-n3cccc32)c1 [Compound G10]
activity against M. canis (in words) [14]: partial activity | activity compared with present compounds 14 and 4 (G7 and G4, both at 40 mg/kg) [14]: less active | semi-quantitative lesion score (mean) ([14]; 3 DPI): 0 | semi-quantitative lesion score (mean) ([14]; 5 DPI): 0.5 | semi-quantitative lesion score (mean) ([14]; 7 DPI): 1 | semi-quantitative lesion score (mean) ([14]; 10 DPI): 1 | semi-quantitative lesion score (mean) ([14]; 12 DPI): 2 | semi-quantitative lesion score (mean) ([14]; 14 DPI): 1 | semi-quantitative lesion score (mean) ([14]; 18 DPI): 1 | semi-quantitative lesion score (mean) ([14]; 21 DPI): 0.5

Structure (SMILES): CCc1ccc(C2=NCc3c(Cl)cccc3-n3cccc32)cc1 [Compound G11]
activity against M. canis (in words) [14]: partial activity | activity compared with present compounds 14 and 4 (G7 and G4, both at 40 mg/kg) [14]: less active | semi-quantitative lesion score (mean) ([14]; 3 DPI): 0 | semi-quantitative lesion score (mean) ([14]; 5 DPI): 0 | semi-quantitative lesion score (mean) ([14]; 7 DPI): 0.5 | semi-quantitative lesion score (mean) ([14]; 10 DPI): 0.5 | semi-quantitative lesion score (mean) ([14]; 12 DPI): 0.5 | semi-quantitative lesion score (mean) ([14]; 14 DPI): 1 | semi-quantitative lesion score (mean) ([14]; 18 DPI): 0.5 | semi-quantitative lesion score (mean) ([14]; 21 DPI): 0.5
